From PMC8273887 (Journal of Medicinal Chemistry, 2021)

Key:
[1] = Stability in simulated gastric fluid (SGF); type: in vitro ADME, porcine; settings: simulated gastric fluid (SGF) with pepsin, pH 1.3, 15 μL of 1 mM peptide stock in 285 μL SGF, 37 °C, samples 0 min-24 h quenched with 0.2 M Na2CO3, RP-HPLC/LC-MS peak area as % of time 0, exponential one-phase decay fit, read-out: t1/2 in SGF
Protocol: (§1) We exposed TFF3(C^57Acm) and TFF3 homodimer to simulated gastric fluid (SGF, containing pepsin, pH 1.3) and simulated intestinal fluid (SIF, containing pancreatic enzymes, pH 6.8), and monitored the mixture over 24 h by analytical RP-HPLC and MS. The N- and C-termini of TFF3 and its homodimer were readily truncated in both SGF and SIF (Figure 4A,B). In SGF, TFF3 was cleaved at Leu^6/Ser^7 followed by cleavage at Glu^54/Ala^55 (t1/2 < 5 min). In SIF, TFF3 was cleaved first at Thr^58/Phe^59 followed by cleavage at Leu^6/Ser^7, Glu^56/Cys^57, and Ala^55/Glu^56 (t1/2 < 5 min). TFF3 homodimer, in both SGF (t1/2 ∼ 40 min) and SIF (t1/2 < 5 min), was first broken down to monomeric TFF3 through simultaneous cleavage at Leu^6 and Glu^54 or Ala^55, eventually leading to the same metabolites as TFF3 (Figure 4B).
(§2) Simulated gastric fluid (SGF) was prepared by dissolving 20 mg of NaCl and 8 mg of pepsin in 70 μL of concentrated HCl (32%), and the volume was diluted to 10 mL with Milli-Q water (pH 1.3).[76],[77] Simulated intestinal fluid (SIF) was prepared by dissolving 68 mg of KH2PO4 in 500 μL of Milli-Q water followed by the addition of 800 μL of 0.2 M NaOH and 100 mg of porcine pancreatin, and the volume was adjusted to 10 mL with Milli-Q water (pH 6.8).[76],[77] Peptide stock solution (1 mM; 15 μL) was added to SGF (285 μL) or SIF (285 μL) and incubated at 37 °C. Samples (30 μL) from SGF and SIF were taken at 0, 5, 15, and 30 min and 1, 2, 4, 8, and 24 h timepoints and subsequently quenched with 30 μL of 0.2 M Na2CO3 (SGF) or 30 μL of 5% aqueous TFA (SIF). The samples were analyzed by analytical RP-HPLC (30 μL) and/or LC-MS (20 μL). The amount of peptide remaining was determined by measuring the peak area and expressing it as a % of the peak area at time 0. Peptide half-life (t1/2) was determined from the peptide degradation profiles using an exponential one-phase decay fit in Prism (version 7, GraphPad, La Jolla). LC-MS analysis was performed in a Q-Star Pulsar mass spectrometer (SCIEX, Ontario, Canada), and the raw data spectra were processed using the peptide reconstruction tool in the BioAnalyst software to identify the mass of the metabolites. The stability of the disulfide bonds was assessed through incubation of the peptides (10 μM) with 10 equiv of reduced glutathione (GSH; 100 μM) in sodium phosphate (50 mM) buffer at pH 7.2. Samples were taken at timepoints 0, 4, 8, and 24 h, quenched by adding 10% TFA, and analyzed by analytical RP-HPLC using an analytical C3 column (Agilent Zorbax SB-C3, 5 μm, 2.1 mm × 250 mm, 300 Å).

human erythrocytes = experiment: Hemolysis analysis; type: cell-based; settings: 1 h, 37 °C, absorbance 405 nm, 0.2–25 μM final concentration, two independent experiments
From the text: Considering the therapeutic potential of TFF3, it was important to determine any cytotoxic and hemolytic effects early on to avoid problems in later stages of drug development. We therefore assessed cytotoxicity on HEK-293 cells and hemolytic effects in human erythrocytes. We treated the cells with TFF3(C^57Acm) and TFF3 homodimer and used resazurin, a blue dye that produces strong fluorescence when reduced by living cells, as the readout of the number of viable cells.[60] In the hemolytic assay, we evaluated hemoglobin release, an indicator of erythrocyte lysis, upon exposure to the peptides.
Monomeric and homodimeric TFF3 were serially diluted twofold in 0.9% NaCl and seeded (25 μL) in a 384-well polypropylene plate (0.2–25 μM final concentration). […] The cells were counted using a Neubauer hemocytometer and then diluted to 1 × 10^8/mL in 0.9% NaCl. […] Following incubation, the plates were centrifuged at 1000g for 10 min to pellet cells and debris and then 25 μL of the supernatant was transferred into a 384-well flat-bottom PS plate and absorbance (Abs) was read at 405 nm using a Tecan M1000 Pro monochromator plate reader. Percent hemolysis was calculated using the following equation: Hemolysis (%) = (Abssample – Absnegative/Abspositive – Absnegative) × 100. […]

[2] = Stability in simulated intestinal fluid (SIF); type: in vitro ADME; settings: pig, simulated intestinal fluid (SIF) with porcine pancreatin, pH 6.8, 15 μL of 1 mM peptide stock in 285 μL SIF, 37 °C, samples 0 min-24 h quenched with 5% aqueous TFA, RP-HPLC/LC-MS peak area as % of time 0, exponential one-phase decay fit, read-out: t1/2 in SIF
Protocol: as §1, §2

CXCR4 = molecular target: T1, CXCR4 (Homo sapiens, UniProt P61073); experiment: Inositol 1 phosphate (IP1) accumulation assay (HTRF) in COS-7 cells transfected with CXCR4; type: cell-based; settings: 5 min preincubation with peptide (1 or 10 μM final), then CXCL12 10^-12 to 10^-5 M; COS-7/CXCR4; IP1 HTRF
T1 construct: expressed in transfected cells; host or cells: COS-7 (African green monkey), transient co-transfection with GαΔ6qi4myr
T1 sequence (P61073 whole entry): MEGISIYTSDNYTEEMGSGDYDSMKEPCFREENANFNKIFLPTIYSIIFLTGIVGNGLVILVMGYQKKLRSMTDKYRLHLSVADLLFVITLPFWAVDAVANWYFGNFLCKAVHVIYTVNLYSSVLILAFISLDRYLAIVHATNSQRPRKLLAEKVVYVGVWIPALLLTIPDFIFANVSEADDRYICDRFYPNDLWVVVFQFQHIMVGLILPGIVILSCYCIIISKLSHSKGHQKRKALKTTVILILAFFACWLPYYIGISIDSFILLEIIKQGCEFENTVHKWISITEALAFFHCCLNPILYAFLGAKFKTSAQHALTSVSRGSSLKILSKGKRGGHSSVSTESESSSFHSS
From the text: CXCR4 is a member of the G protein-coupled receptor (GPCR) family[58] and proposed as a target receptor for TFF3 to mediate wound healing.[30],[39] We therefore pharmacologically characterized TFF3(C^57Acm) and TFF3 homodimer at CXCR4. We used a chimeric Gαiq protein to switch the pathway to the Gαq signaling, which leads to the activation of the phospholipase and allows measurement of CXCR4 activation through the production of inositol 1 phosphate (IP1).[61]−[63] We measured IP1 accumulation upon stimulation with TFF3(C^57Acm) and TFF3 homodimer in fibroblast-like COS-7 cells transiently transfected with CXCR4.[58] This is a competitive immunoassay, based on the HTRF technology, where native IP1 produced by cells compete with labeled IP1 (acceptor) for binding to anti-IP1-cryptate (donor). The specific signal (i.e., Förster resonance energy transfer, FRET) is inversely proportional to the concentration of IP1 in the sample. The calculation of the fluorescence ratio eliminates possible medium interferences.[64]
COS-7 cells (fibroblast-like cells from African green monkey) were transiently co-transfected with the CXCR4 C-terminally fused to eYFP in pVitro2 vector and the untagged chimeric G protein GαΔ6qi4myr in pcDNA3.1 plasmid using Metafectene Pro according to manufacturer’s protocol. The cells were cultured in DMEM with higher glucose and supplemented with 10% FCS without any antibiotics at 37 °C and 5% CO2 in 95% humidity. Cisbio IP-One Gq assay kit was used according to previous description with minor modifications to measure activity.[80] Briefly, a standard curve was prepared in HBSS (Hanks’ balanced salt solution) with 20 mM LiCl to determine the linear range of the assay and 10 000 cells/well were cultured overnight in a 384-well flat white plate (Greiner Bio-one GmbH, Frickenhausen, Germany). TFF3 and its homodimer as well as CXCL12 were diluted in HBSS containing 20 mM LiCl. Stimulation was carried out for 1 h in triplicate at 37 °C. Subsequently, 3 μL of IP1-d2 and 3 μL of Ab-cryptate in lysis buffer were added to the wells and incubated on a tumbler for 60 min at 25 °C. Fluorescence was then measured at 620 and 665 nm and the HTRF (homogeneous time-resolved fluorescence) ratio (665/620 nm) was calculated. Data analysis was performed with Prism (version 7, GraphPad, La Jolla). Tested compounds were normalized to CXCL12 wild type, with the highest HTRF ratio set to 0% and the lowest HTRF ratio set to 100% response. […] The final concentration range of 10^–12 to 10^–5 M to CXCL12 and 1 or 10 μM to TFF3(C^57Acm) and TFF3 homodimer was achieved by adding the compounds from a threefold concentrated stock solution.

[3] = molecular target: chemokine receptor type 4 (CXCR4), C-terminally fused to eYFP (UniProt P61073)
Chain of chemokine receptor type 4 (CXCR4), C-terminally fused to eYFP (P61073 whole entry, the tested form may be a part): as the sequence (P61073 whole entry) above

Chain of C-X-C motif chemokine 12 (CXCL12), recombinant human, with an additional N-terminal methionine (P48061 other isoform, or with tags, fused parts or gaps): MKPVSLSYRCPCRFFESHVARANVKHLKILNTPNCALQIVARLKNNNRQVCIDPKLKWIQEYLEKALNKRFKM

Row | Compound | half-life at 50 μM [1] | concentration up to which no hemolytic effect was displayed (human erythrocytes) | half-life at 50 μM [2] | effect on the EC50 of CXCL12 at CXCR4 (antagonism) (CXCR4) | EC50 of IP1 accumulation (HTRF, IP-One Gq kit) in COS-7 cells transfected with CXCR4 and a chimeric G protein; CXCL12 10^-12 to 10^-5 M [3]
1 | CC[C@H](C)[C@@H]1NC(=O)[C@H](CCCNC(=N)N)NC(=O)[C@H](CO)NC(=O)[C@H](CC(=O)O)NC(=O)[C@H](Cc2ccccc2)NC(=O)[C@@H]2CSSC[C@H](NC(=O)[C@H](CCC(N)=O)NC(=O)[C@H](CC(N)=O)NC(=O)[C@H](C)NC(=O)[C@H](CO)NC(=O)[C@H](CC(C)C)NC(=O)CNC(=O)[C@@H](NC(=O)[C@H](Cc3ccc(O)cc3)NC(=O)[C@H](CCC(=O)O)NC(=O)[C@@H](N)CCC(=O)O)C(C)C)C(=O)N[C@@H](C)C(=O)N[C@@H](C(C)C)C(=O)N3CCC[C@H]3C(=O)N[C@@H](C)C(=O)N[C@@H](CCCCN)C(=O)N[C@@H](CC(=O)O)C(=O)N[C@@H](CCCNC(=N)N)C(=O)N[C@@H](C(C)C)C(=O)N[C@@H](CC(=O)O)C(=O)N[C@H]3CSSC[C@H](NC(=O)CNC(=O)[C@H](CCCNC(=N)N)NC(=O)[C@H](CC(N)=O)NC(=O)[C@H](CC(N)=O)NC(=O)[C@H](CSSC[C@@H](C(=O)N[C@@H](Cc4ccccc4)C(=O)N[C@@H](CCCCN)C(=O)N4CCC[C@H]4C(=O)N[C@@H](CC(C)C)C(=O)N[C@@H](CCC(N)=O)C(=O)N[C@@H](CCC(=O)O)C(=O)N[C@@H](C)C(=O)N[C@@H](CCC(=O)O)C(=O)N[C@@H](CSSC[C@H](NC(=O)[C@H](CCC(=O)O)NC(=O)[C@H](C)NC(=O)[C@H](CCC(=O)O)NC(=O)[C@H](CCC(N)=O)NC(=O)[C@H](CC(C)C)NC(=O)[C@@H]4CCCN4C(=O)[C@H](CCCCN)NC(=O)[C@H](Cc4ccccc4)NC(=O)[C@@H]4CSSC[C@@H]5NC(=O)[C@H](CCC(=O)O)NC(=O)[C@H](CCCCN)NC(=O)[C@@H]6CCCN6C(=O)[C@H]([C@@H](C)O)NC(=O)[C@H](C(C)C)NC(=O)[C@H](Cc6c[nH]cn6)NC(=O)[C@@H]6CCCN6C(=O)[C@H](Cc6ccc(O)cc6)NC(=O)CNC(=O)[C@@H]6CSSC[C@H](NC(=O)CNC(=O)[C@H](CCCNC(=N)N)NC(=O)[C@H](CC(N)=O)NC(=O)[C@H](CC(N)=O)NC5=O)C(=O)N[C@@H](CSSC[C@H](NC(=O)[C@H](CCC(N)=O)NC(=O)[C@H](CC(N)=O)NC(=O)[C@H](C)NC(=O)[C@H](CO)NC(=O)[C@H](CC(C)C)NC(=O)CNC(=O)[C@@H](NC(=O)[C@H](Cc5ccc(O)cc5)NC(=O)[C@H](CCC(=O)O)NC(=O)[C@@H](N)CCC(=O)O)C(C)C)C(=O)N[C@@H](C)C(=O)N[C@@H](C(C)C)C(=O)N5CCC[C@H]5C(=O)N[C@@H](C)C(=O)N[C@@H](CCCCN)C(=O)N[C@@H](CC(=O)O)C(=O)N[C@@H](CCCNC(=N)N)C(=O)N[C@@H](C(C)C)C(=O)N[C@@H](CC(=O)O)C(=O)N6)C(=O)N[C@@H](Cc5ccccc5)C(=O)N[C@@H](CC(=O)O)C(=O)N[C@@H](CO)C(=O)N[C@@H](CCCNC(=N)N)C(=O)N[C@@H]([C@@H](C)CC)C(=O)N5CCC[C@H]5C(=O)NCC(=O)N[C@@H](C(C)C)C(=O)N5CCC[C@H]5C(=O)N[C@@H](Cc5c[nH]c6ccccc56)C(=O)N4)C(=O)N[C@H](C(=O)N[C@@H](Cc4ccccc4)C(=O)O)[C@@H](C)O)C(=O)N[C@H](C(=O)N[C@@H](Cc4ccccc4)C(=O)O)[C@@H](C)O)NC(=O)[C@H](Cc4c[nH]c5ccccc45)NC(=O)[C@@H]4CCCN4C(=O)[C@H](C(C)C)NC(=O)CNC(=O)[C@@H]4CCCN4C1=O)NC(=O)[C@H](CCC(=O)O)NC(=O)[C@H](CCCCN)NC(=O)[C@@H]1CCCN1C(=O)[C@H]([C@@H](C)O)NC(=O)[C@H](C(C)C)NC(=O)[C@H](Cc1c[nH]cn1)NC(=O)[C@@H]1CCCN1C(=O)[C@H](Cc1ccc(O)cc1)NC(=O)CNC3=O)C(=O)N2 [TFF3 homodimer] | ~40 min | > 25 µM | < 5 min | not affected | –
2 | C-X-C motif chemokine 12 (CXCL12), recombinant human, with an additional N-terminal methionine (from UniProt P48061 22-93) (ligand) | – | – | – | – | 5.9 nM
